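1) Cells in 96-well plates. 2) Compound, 48 h, 5 concentrations. 3) Linear interpolation between surrounding doses. 4) Unreached endpoint = highest concentration. The concentration for 50% growth inhibition is given as GI50. The concentration for full growth arrest is given as TGI.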
How the values were obtained:
Experiment in all cases: DTP human tumour cell line panel, 48 h
CAKI-1 renal = tested on: CAKI-1 renal
HCC-2998 colon = tested on: HCC-2998 colon
HS 578T breast = tested on: HS 578T breast
IGROV1 ovarian = tested on: IGROV1 ovarian
LOX IMVI melanoma = tested on: LOX IMVI melanoma
SK-MEL-28 melanoma = tested on: SK-MEL-28 melanoma
SK-OV-3 ovarian = tested on: SK-OV-3 ovarian
UO-31 renal = tested on: UO-31 renal
HL-60(TB) leukemia = tested on: HL-60(TB) leukemia

## CC/C(Cl)=N\OC(=O)Nc1ccc(F)c([N+](=O)[O-])c1
CAKI-1 renal
  TGI: 7.7 µM
HCC-2998 colon
  TGI: > 100 µM
HS 578T breast
  TGI: 31.7 µM
IGROV1 ovarian
  TGI: 33.8 µM
LOX IMVI melanoma
  TGI: > 48.9 µM
SK-MEL-28 melanoma
  TGI: 33.9 µM
SK-OV-3 ovarian
  TGI: 34.5 µM
UO-31 renal
  TGI: 14.2 µM

## COc1ccc(N=NC(=Nc2ccc(F)cc2)c2ccc(N(CCC#N)CCC#N)cc2)cc1
CAKI-1 renal
  TGI: > 100 µM
HCC-2998 colon
  TGI: 51.5 µM
HS 578T breast
  TGI: 86.4 µM
IGROV1 ovarian
  TGI: 77.7 µM
SK-MEL-28 melanoma
  TGI: > 100 µM
SK-OV-3 ovarian
  TGI: > 100 µM
UO-31 renal
  TGI: > 100 µM

## CCOC(=O)C1(C(=O)OCC)CCCN1C(=O)[C@H](CNC(=O)OC(C)(C)C)NC(=O)OCc1ccccc1
CAKI-1 renal
  TGI: > 100 µM
HCC-2998 colon
  TGI: > 100 µM
HS 578T breast
  TGI: > 100 µM
IGROV1 ovarian
  TGI: > 100 µM
LOX IMVI melanoma
  TGI: > 100 µM
SK-MEL-28 melanoma
  TGI: > 100 µM
SK-OV-3 ovarian
  TGI: > 100 µM
UO-31 renal
  TGI: > 100 µM

## CN1COCc2cc3cc4c(cc3nc21)OCCO4
CAKI-1 renal
  TGI: > 100 µM
HCC-2998 colon
  TGI: > 100 µM
IGROV1 ovarian
  TGI: > 100 µM
LOX IMVI melanoma
  TGI: > 100 µM
SK-OV-3 ovarian
  TGI: > 100 µM

## O=C(Nc1ccc(-n2cc(-c3ccncc3)c(-c3ccc(O)c(Cl)c3)n2)cc1)Nc1cccc(Cl)c1Cl
CAKI-1 renal
  GI50: > 32.5 µM
  TGI: > 32.5 µM
HCC-2998 colon
  GI50: 18.9 µM
  TGI: > 32.5 µM
HL-60(TB) leukemia
  GI50: 7.49 µM
  TGI: > 32.5 µM
HS 578T breast
  GI50: 2.84 µM
  TGI: 26.5 µM
IGROV1 ovarian
  GI50: 14.5 µM
  TGI: > 32.5 µM
LOX IMVI melanoma
  GI50: 3.45 µM
  TGI: > 32.5 µM
SK-MEL-28 melanoma
  GI50: 5.8 µM
  TGI: 18 µM
UO-31 renal
  GI50: 6.67 µM
  TGI: > 32.5 µM

## CCCOC(=O)NC(C)C(=O)NC(CCC(=O)NC(CCCC(N)C(=O)O)C(=O)NC(C)C(=O)O)C(=O)O (centres undefined)
CAKI-1 renal
  TGI: 40.7 µM
HCC-2998 colon
  TGI: 34.8 µM
HL-60(TB) leukemia
  TGI: 42.1 µM
HS 578T breast
  TGI: 40.5 µM
IGROV1 ovarian
  TGI: > 100 µM
LOX IMVI melanoma
  TGI: 30.1 µM
SK-MEL-28 melanoma
  TGI: 44.9 µM
UO-31 renal
  TGI: > 100 µM

## COc1ccc(/C=N/N2C(=O)c3c(N)c(C#N)c(-c4ccccc4)c(-c4ccccc4)c3C2=O)cc1
CAKI-1 renal
  TGI: > 100 µM
HCC-2998 colon
  TGI: > 100 µM
HL-60(TB) leukemia
  TGI: > 100 µM
HS 578T breast
  TGI: > 100 µM
IGROV1 ovarian
  TGI: > 100 µM
LOX IMVI melanoma
  TGI: > 100 µM
SK-MEL-28 melanoma
  TGI: > 100 µM
UO-31 renal
  TGI: > 100 µM

## O=C(O)c1ccc2c(c1)CC1(C2)Cc2cc3c(cc2C1=O)CCC3 (centres undefined)
HCC-2998 colon
  TGI: > 100 µM
HL-60(TB) leukemia
  TGI: > 100 µM
HS 578T breast
  TGI: > 100 µM
IGROV1 ovarian
  TGI: > 100 µM
LOX IMVI melanoma
  TGI: > 100 µM
SK-MEL-28 melanoma
  TGI: > 100 µM
SK-OV-3 ovarian
  TGI: > 100 µM
UO-31 renal
  TGI: > 100 µM

## CC12CC1C(c1cccc([N+](=O)[O-])c1)(c1cccc([N+](=O)[O-])c1)N=N2 (centres undefined)
HCC-2998 colon
  TGI: > 100 µM
HL-60(TB) leukemia
  TGI: 45.8 µM
HS 578T breast
  TGI: 78 µM
IGROV1 ovarian
  TGI: 60.5 µM
LOX IMVI melanoma
  TGI: 27.8 µM
SK-MEL-28 melanoma
  TGI: > 100 µM
SK-OV-3 ovarian
  TGI: > 100 µM
UO-31 renal
  TGI: 23.8 µM

## COC(=O)[C@H](C)NC(=O)[C@H](CSC)N1C(=O)N[C@@H](C(C)C)C1=O
CAKI-1 renal
  TGI: > 100 µM
HCC-2998 colon
  TGI: > 100 µM
IGROV1 ovarian
  TGI: > 100 µM
LOX IMVI melanoma
  TGI: > 100 µM
SK-MEL-28 melanoma
  TGI: > 100 µM
SK-OV-3 ovarian
  TGI: > 100 µM
UO-31 renal
  TGI: > 100 µM

## CCCCN(CCCC)C(=C(C(Cl)=C(Cl)Cl)[N+](=O)[O-])N(CCCC)CCCC
CAKI-1 renal
  TGI: > 100 µM
SK-MEL-28 melanoma
  TGI: > 100 µM
SK-OV-3 ovarian
  TGI: > 100 µM
UO-31 renal
  TGI: > 100 µM

## OC1(c2ccc(Cl)cc2)c2ccc(CN3CCCC3)cc2C2=NCCN21 (centres undefined)
CAKI-1 renal
  TGI: 31.7 µM
HL-60(TB) leukemia
  TGI: 29.1 µM
HS 578T breast
  TGI: 26 µM
IGROV1 ovarian
  TGI: 28.7 µM
LOX IMVI melanoma
  TGI: 29.1 µM
SK-MEL-28 melanoma
  TGI: 22.7 µM
SK-OV-3 ovarian
  TGI: 27.3 µM
UO-31 renal
  TGI: 27.5 µM

## COP(=O)(OC)C12CCOCCN1c1ccccc1C2=O (centres undefined)
CAKI-1 renal
  TGI: > 100 µM
HCC-2998 colon
  TGI: > 100 µM
HL-60(TB) leukemia
  TGI: > 100 µM
HS 578T breast
  TGI: > 100 µM
IGROV1 ovarian
  TGI: > 100 µM
SK-MEL-28 melanoma
  TGI: > 100 µM
SK-OV-3 ovarian
  TGI: > 100 µM
UO-31 renal
  TGI: > 100 µM

## COC(=O)C1=C(O)C(C(=O)OC)[C@@]2(O)[C@@H](C(=O)OC)[C@H](C)[C@@H](C)[C@@H]1[C@@H]2C(=O)OC (some centres undefined)
HCC-2998 colon
  TGI: > 100 µM
HL-60(TB) leukemia
  TGI: > 100 µM
HS 578T breast
  TGI: > 100 µM
LOX IMVI melanoma
  TGI: > 100 µM
SK-MEL-28 melanoma
  TGI: > 100 µM
SK-OV-3 ovarian
  TGI: > 100 µM
UO-31 renal
  TGI: > 100 µM

## CSC(SC)=C1C(=O)N(c2ccccc2)N=C1C
CAKI-1 renal
  TGI: 65.8 µM
HCC-2998 colon
  TGI: > 100 µM
HS 578T breast
  TGI: > 100 µM
IGROV1 ovarian
  TGI: 93.5 µM
LOX IMVI melanoma
  TGI: > 100 µM
SK-OV-3 ovarian
  TGI: 91.9 µM

## COc1ccc2c(c1)CCN=C2c1ccccc1CCCCl
CAKI-1 renal
  TGI: 70.2 µM
HCC-2998 colon
  TGI: 24.9 µM
HL-60(TB) leukemia
  TGI: > 100 µM
HS 578T breast
  TGI: 96.5 µM
IGROV1 ovarian
  TGI: > 100 µM
SK-MEL-28 melanoma
  TGI: > 100 µM
SK-OV-3 ovarian
  TGI: > 100 µM
UO-31 renal
  TGI: 26.7 µM

## CCOC(=O)C(C)c1nc2c(Cl)c3ncccc3cc2[nH]c1=O (centres undefined)
CAKI-1 renal
  TGI: > 100 µM
HS 578T breast
  TGI: 90.4 µM
IGROV1 ovarian
  TGI: > 100 µM
LOX IMVI melanoma
  TGI: > 100 µM
SK-MEL-28 melanoma
  TGI: > 100 µM
SK-OV-3 ovarian
  TGI: > 100 µM
UO-31 renal
  TGI: > 100 µM

## CCOC(=O)[C@@H]1ON2O[C@@H](OC3CCCC3(c3ccccc3)c3ccccc3)C[C@H]3OC(=O)[C@@H]1C32 (some centres undefined)
CAKI-1 renal
  TGI: 31.6 µM
HCC-2998 colon
  TGI: > 100 µM
HL-60(TB) leukemia
  TGI: 60.9 µM
HS 578T breast
  TGI: > 100 µM
IGROV1 ovarian
  TGI: > 100 µM
LOX IMVI melanoma
  TGI: > 100 µM
SK-OV-3 ovarian
  TGI: > 100 µM
UO-31 renal
  TGI: 41.1 µM

Reference: PubChem BioAssay (NCI)
